Entries after “also recorded” stand apart in the source; their conditions may differ. Values belong to the compound of their own block, whether it stands above or below them.
Columns and labels:
[1] = system: SK1; details: known compounds, Figure 1; cited from earlier work
[2] = system: SK2; details: Figure 1, cited from earlier work; for IC50: known compounds
[3] = system: HCT116 cells; assay: MTT cell viability assay; format: cell-based, human; details: for cytotoxic effect (cell viability): HCT116, 20 and 40 µM, 24 h, Figure 2B
Protocol: (§1) The HT29 and HCT116 cells (human colon cancer), AGS (human gastric cancer), and MIA PaCa-2 cells (human pancreatic cancer) were purchased from Korean Cell Line Bank (Seoul, Korea). Cancer cells were maintained in RPMI (HT29 and AGS) and DMEM (HCT116 and MIA PaCa-2) culture media supplemented with 10% fetal bovine serum (FBS) and 100 U/mL penicillin and streptomycin at 37 °C in a 95% humidified incubator containing 5% CO2. The cytotoxic effect of the compounds was assessed using the MTT cell viability assay. Briefly, 3 × 10^3 cells/well were grown in 96-well plates for 24 h. After treatment with desired concentration of respective compounds for 24 h or 48 h, the EZ-CYTOTOX (10 µM) reagent was added in each well and incubated for 90 min. The absorbance was measured at 450 nm wavelength using Skanlt software 5.0 (Thermo Scientific, Waltham, MA, USA) installed on a Multiskan GO (Thermo Scientific, Waltham, MA, USA) spectrophotometer. Each experiment was independently repeated three times (n = 12).

[4] = system: HT29 cells; assay: MTT cell viability assay; format: cell-based, human; details: HT29, 20 and 40 µM, 24 h, Figure 2A
Protocol: as §1

[5] = biological target: T1, SK1 enzyme (Homo sapiens, UniProt Q9NYA1); assay: SK activity assay (Adapta screening system); format: biochemical; details: 20 μM, Figure 5
T1 construct: purchased Thermo Fisher Scientific
T1 sequence (Q9NYA1 whole entry): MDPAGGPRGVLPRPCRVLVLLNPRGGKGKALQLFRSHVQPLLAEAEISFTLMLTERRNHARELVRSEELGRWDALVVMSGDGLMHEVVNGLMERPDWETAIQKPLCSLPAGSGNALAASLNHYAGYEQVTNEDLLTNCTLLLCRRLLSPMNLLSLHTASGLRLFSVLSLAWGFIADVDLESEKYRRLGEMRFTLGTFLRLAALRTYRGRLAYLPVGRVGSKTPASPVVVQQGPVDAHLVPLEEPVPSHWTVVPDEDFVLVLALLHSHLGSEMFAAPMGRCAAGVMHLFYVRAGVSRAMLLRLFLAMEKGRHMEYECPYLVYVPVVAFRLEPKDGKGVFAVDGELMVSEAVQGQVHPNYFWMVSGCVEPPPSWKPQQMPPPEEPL
Protocol: The effect of compounds in sphingosine kinase activity was examined using the […] screening system (Thermo Fisher Scientific System, Waltham, MA, USA). The kinase inhibition ability of compounds 1-11 along with RB005 was measured with final concentration of 20 μM. […] The data were presented as percentage inhibition of SK enzyme by individual compounds.

[6] = system: HT29 cells; assay: Annexin V-FITC/PI staining, flow cytometry; format: cell-based, human; details: HT29, 10 and/or 20 µM, 24 h
Protocol: After treating HT29 and HCT116 cells with compounds 10, 11, 13 and FTY720 according to the manufacturer’s instruction, the annexin V and PI staining technique was employed to determine apoptosis in the cells. Briefly, cells (2.5 × 10^5 cells/well) were seeded in 12-well plates and treated with 10 and/or 20 µM of compounds for 24 h. Cells were collected using trypsin-EDTA and stained with annexin V-FITC dye for 15 min at room temperature, followed by PI staining for 20 min and analyzed by flow cytometer (MACSQuant Analyzer 10; Miltenyi Biotec, Bergisch Gladbach, Germany). The data was analyzed using MACSQuantify^TM version 2.8 software (Miltenyi Biotec, Bergisch Gladbach, Germany) and presented as early apoptosis, late apoptosis, or combined apoptosis percentage. Each experiment was repeated three times independently (n = 6).

[7] = biological target: T2, PP2A in HCT116 cells (Homo sapiens, UniProt P67775); assay: PP2A activity assay (immunoprecipitation kit); format: cell-based; details: for PP2A activity (activation): HCT116, 20 µM, 24 h
T2 construct: endogenous in cells; host or cells: HCT116
T2 sequence (P67775 whole entry): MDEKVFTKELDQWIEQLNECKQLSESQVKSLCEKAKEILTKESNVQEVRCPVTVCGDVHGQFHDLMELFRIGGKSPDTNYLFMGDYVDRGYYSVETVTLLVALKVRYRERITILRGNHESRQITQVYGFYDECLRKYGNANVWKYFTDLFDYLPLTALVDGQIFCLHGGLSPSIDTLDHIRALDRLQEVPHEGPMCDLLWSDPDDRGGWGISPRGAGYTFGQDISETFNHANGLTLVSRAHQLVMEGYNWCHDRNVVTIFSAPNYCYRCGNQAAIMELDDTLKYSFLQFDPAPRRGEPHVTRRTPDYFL
Protocol: The activity of PP2A was measured by using the PP2A kit according to the manufacturer’s instruction. The cell lysate was incubated with anti PP2A, C subunit antibody, and protein A agarose slurry for 2 h at 4 °C. The phosphopeptide solution (60 µL) was mixed and incubated at 30 °C for 10 min in a shaker. After a brief centrifuge, a 25 µL sample was liquated in ½ volume microplate and 100 µL malachite green phosphate detection working solution was added. After color development, absorbance was taken at 650 nm in a Multiskan GO microplate reader. A phosphate standard curve was constructed using phosphate standard, and results were calculated using this standard curve. This experiment was repeated three times (n = 6).

[8] = system: AKT and ERK phosphorylation in HCT116 cells; assay: Western blotting of pAKT and pERK; format: cell-based, human; details: HCT116, 20 µM
Protocol: The cell lysate was prepared after successive treatment using mammalian protein extraction buffer (Organic buffer + 10 mM NaCl + detergent pH 7.5) mixed with 1% protease/phosphatase inhibitor cocktail; protein was quantified with BCA assay, boiled at 95 °C for 10 min by adding sample loading buffer, separated using SDS-PAGE, and transferred into methanol-activated PVDF membrane. Primary antibodies were probed overnight in PVDF membrane at 4 °C and […] with subsequent HRP anti-mouse and anti-rabbit secondary antibodies at room temperature. Then, membranes were washed with TBST buffer, and images were detected by Amersham Imager 680 (GE Healthcare; Leiden, WZ, The Netherlands) using ECL solution. Band intensities were analyzed and quantified using Image J software (version 1.53i).

[9] = biological target: T3, CYP1A2 (Homo sapiens, UniProt P05177); assay: Inhibition of CYP enzymes activity, human liver microsomes; details: human liver microsomes 0.25 mg/mL, 10 μM, phenacetin substrate
T3 sequence (P05177 1-516): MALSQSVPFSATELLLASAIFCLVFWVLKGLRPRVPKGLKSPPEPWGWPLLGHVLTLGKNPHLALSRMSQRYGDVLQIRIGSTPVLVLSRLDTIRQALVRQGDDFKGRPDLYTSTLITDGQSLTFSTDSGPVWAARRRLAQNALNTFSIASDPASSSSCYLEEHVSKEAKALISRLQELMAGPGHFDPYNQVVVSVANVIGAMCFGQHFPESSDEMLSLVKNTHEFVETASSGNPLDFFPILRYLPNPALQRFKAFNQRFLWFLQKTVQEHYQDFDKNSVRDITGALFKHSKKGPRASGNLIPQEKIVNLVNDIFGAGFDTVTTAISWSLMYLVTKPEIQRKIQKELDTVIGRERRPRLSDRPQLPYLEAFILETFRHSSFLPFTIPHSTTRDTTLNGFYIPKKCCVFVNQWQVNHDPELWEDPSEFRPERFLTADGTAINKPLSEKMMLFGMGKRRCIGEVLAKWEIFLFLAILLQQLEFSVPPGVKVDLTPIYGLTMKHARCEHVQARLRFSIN

[10] = biological target: CYP2C9 (Homo sapiens, UniProt P11712); assay: as above; details: human liver microsomes 0.25 mg/mL, 10 μM, diclofenac substrate
Sequence of CYP2C9 (P11712 whole entry): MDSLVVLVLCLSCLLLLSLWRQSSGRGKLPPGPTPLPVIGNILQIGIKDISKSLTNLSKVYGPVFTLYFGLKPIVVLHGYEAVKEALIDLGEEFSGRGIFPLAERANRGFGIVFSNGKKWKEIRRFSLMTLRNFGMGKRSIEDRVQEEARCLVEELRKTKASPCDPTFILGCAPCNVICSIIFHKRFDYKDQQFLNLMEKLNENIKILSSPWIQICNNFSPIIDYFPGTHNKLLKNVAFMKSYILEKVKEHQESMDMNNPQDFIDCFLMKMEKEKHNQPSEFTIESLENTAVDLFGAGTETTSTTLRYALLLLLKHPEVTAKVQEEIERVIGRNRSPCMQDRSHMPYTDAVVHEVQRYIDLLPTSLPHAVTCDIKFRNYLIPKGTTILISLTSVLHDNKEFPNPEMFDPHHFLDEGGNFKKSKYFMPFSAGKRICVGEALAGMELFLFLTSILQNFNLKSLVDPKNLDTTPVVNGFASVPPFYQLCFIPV

[11] = biological target: CYP2C19 (Homo sapiens, UniProt P33261); assay: as above; details: human liver microsomes 0.25 mg/mL, 10 μM, S-mephenytoin substrate
Sequence of CYP2C19 (P33261 whole entry): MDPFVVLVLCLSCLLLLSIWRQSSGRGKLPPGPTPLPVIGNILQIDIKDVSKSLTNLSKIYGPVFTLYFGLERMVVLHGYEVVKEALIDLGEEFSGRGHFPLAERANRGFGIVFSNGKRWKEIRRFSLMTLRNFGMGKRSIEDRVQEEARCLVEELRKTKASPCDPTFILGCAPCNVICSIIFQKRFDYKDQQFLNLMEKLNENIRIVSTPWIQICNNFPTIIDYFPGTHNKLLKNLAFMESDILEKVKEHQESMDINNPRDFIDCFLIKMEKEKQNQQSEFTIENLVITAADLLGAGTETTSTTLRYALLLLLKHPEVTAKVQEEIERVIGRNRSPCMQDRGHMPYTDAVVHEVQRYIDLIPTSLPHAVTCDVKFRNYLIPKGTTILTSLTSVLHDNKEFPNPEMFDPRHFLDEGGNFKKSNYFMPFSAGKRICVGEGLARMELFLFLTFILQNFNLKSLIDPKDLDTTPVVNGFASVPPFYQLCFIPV

[12] = In vitro metabolic stability in liver microsomes; format: in vitro ADME, rat
[13] = In vitro metabolic stability in liver microsomes; format: in vitro ADME, mouse
[14] = In vitro metabolic stability in liver microsomes
[15] = biological target: CYP2D6 (Homo sapiens, UniProt P10635); assay: Inhibition of CYP enzymes activity, human liver microsomes; details: human liver microsomes 0.25 mg/mL, 10 μM, dextromethorphan substrate
Sequence of CYP2D6 (P10635 whole entry): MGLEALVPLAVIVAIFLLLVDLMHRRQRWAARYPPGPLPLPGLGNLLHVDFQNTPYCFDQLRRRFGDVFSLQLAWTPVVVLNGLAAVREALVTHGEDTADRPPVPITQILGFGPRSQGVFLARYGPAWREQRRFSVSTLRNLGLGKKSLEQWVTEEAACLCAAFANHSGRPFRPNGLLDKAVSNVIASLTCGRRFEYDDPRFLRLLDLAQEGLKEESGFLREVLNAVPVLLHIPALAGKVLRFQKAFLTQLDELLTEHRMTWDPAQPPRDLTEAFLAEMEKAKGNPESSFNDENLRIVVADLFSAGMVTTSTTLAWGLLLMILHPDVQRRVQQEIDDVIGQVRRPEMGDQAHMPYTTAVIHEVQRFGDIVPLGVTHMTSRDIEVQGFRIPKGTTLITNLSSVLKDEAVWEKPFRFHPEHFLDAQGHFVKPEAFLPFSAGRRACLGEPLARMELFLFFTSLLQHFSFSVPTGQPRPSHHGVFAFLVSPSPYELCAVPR

[16] = % remaining after 30 min, NADPH

SMILES: O=C(NCc1ccncc1)C12CC3CC(C1)CC(c1ccc(Cl)cc1)(C3)C2 [ABC294640]
IC50 [1]: > 100 µM
IC50 [2]: ~60 µM

SK1 inhibitory effect [5]: highest SK1 inhibitory effect
SMILES: CCCCCCCOc1ccc(CCN2CCC[C@@H]2CO)cc1 [Compound 1, (R)-(1-(4-(Heptyloxy)phenethyl)pyrrolidin-2-yl)methanol]
cytotoxic effect (cell viability) [3]: significant cytotoxic effects in both 20 and 40 µM concentrations
cytotoxic effect (cell viability) [4]: more cytotoxic than RB005 and 5-FU

SMILES: CCCCCCCOc1ccc(CCN2CCCCC2)cc1 [Compound 2, 1-(4-(Heptyloxy)phenethyl)piperidine]
cytotoxic effect (cell viability) [3]: significant cytotoxic effects in both 20 and 40 µM concentrations
cytotoxic effect (cell viability) [4]: more cytotoxic than RB005 and 5-FU

SMILES: CCCCCCCOc1ccc(CCN2CCC[C@H]2CO)cc1 [Compound 5, (S)-(1-(4-(Heptyloxy)phenethyl)pyrrolidin-2-yl)methanol]
cytotoxic effect (cell viability) [3]: only 40 µM concentration of compounds 3, 5 and 9 shows significant cytotoxic effect

SMILES: CCCCCCCOc1ccc(CCN2CCC(CO)CC2)cc1 [Compound 6, (1-(4-(Heptyloxy)phenethyl)piperidin-4-yl)methanol]
cytotoxic effect (cell viability) [3]: significant cytotoxic effects in both 20 and 40 µM concentrations
cytotoxic effect (cell viability) [4]: more cytotoxic than RB005 and 5-FU

SMILES: CCCCCCCOc1ccc(CCN2CCC(C)CC2)cc1 [Compound 7, 1-(4-(Heptyloxy)phenethyl)-4-methylpiperidine]
cytotoxic effect (cell viability) [3]: significant cytotoxic effects in both 20 and 40 µM concentrations

SMILES: CCCCCCCOc1ccc(CCN2CCCC(CO)C2)cc1 (stereo not shown) [Compound 8, (1-(4-(Heptyloxy)phenethyl)piperidin-3-yl)methanol]
cytotoxic effect (cell viability) [3]: significant cytotoxic effects in both 20 and 40 µM concentrations
cytotoxic effect (cell viability) [4]: more cytotoxic than RB005 and 5-FU

SMILES: CCCCCCCOc1ccc(CCN2CCNCC2)cc1 [Compound 9, 1-(4-(Heptyloxy)phenethyl)piperazine]
cytotoxic effect (cell viability) [3]: only 40 µM concentration of compounds 3, 5 and 9 shows significant cytotoxic effect
cytotoxic effect (cell viability) [4]: more cytotoxic than RB005 and 5-FU

selectivity to SK1 (over SK2) [5]: more selectivity than RB005
SMILES: O=S(=O)(Oc1ccc(CCN2CCC[C@@H]2CO)cc1)c1ccccc1 [Compound 11, (R)-4-(2-(2-(Hydroxymethyl)pyrrolidin-1-yl)ethyl)phenyl benzenesulfonate]
apoptosis (annexin V assay) [6]: did not significantly induce apoptosis
SK1 inhibitory effect [5]: three-fold higher SK1 inhibitory effect than RB005
PP2A activity (activation) [7]: no effect on PP2A activation; also recorded: did not increase PP2A activity
phosphorylation of AKT and ERK [8]: did not decrease phosphorylation of AKT and ERK

selectivity to SK1 (over SK2) [5]: more selectivity than RB005
SMILES: O=S(=O)(Oc1ccc(CCN2CCC(O)CC2)cc1)c1ccccc1 [Compound 13, 4-(2-(4-Hydroxypiperidin-1-yl)ethyl)phenyl benzenesulfonate]
apoptosis (annexin V assay) [6]: did not significantly induce apoptosis
PP2A activity (activation) [7]: no effect on PP2A activation; also recorded: did not increase PP2A activity
phosphorylation of AKT and ERK [8]: did not decrease phosphorylation of AKT and ERK

SMILES: CCCCOc1ccc(CCC=C2SC(=O)N(CCN)C2=O)cc1 [Compound K145]
IC50 [1]: > 10 µM
IC50 [2]: 4.3 µM

SMILES: CC(=O)N1CCN(c2ccc(OCC3COC(Cn4ccnc4)(c4ccc(Cl)cc4Cl)O3)cc2)CC1 (stereo not shown) [Ketoconazole]
CYP1A2 activity (% of control activity) [9]: >100%
CYP2C9 activity (% of control activity) [10]: >100%
CYP2C19 activity (% of control activity) [11]: >100%

SMILES: Cc1cc(CS(=O)(=O)c2ccccc2)cc(OCc2ccc(CN3CCC[C@@H]3CO)cc2)c1 [PF-543]
liver microsomal stability, Rat (%) [12, 16]: 8.1%
liver microsomal stability (in words) ([12]; rat): unstable
liver microsomal stability, Mouse (%) [13, 16]: 6.5%
liver microsomal stability (in words) ([13]; mouse): unstable
liver microsomal stability, Human (%) ([14]; % remaining after 30 min, 0.5 mg/mL microsomes, NADPH): 13.5%
liver microsomal stability (in words) ([14]; human): unstable
CYP1A2 activity (% of control activity) [9]: 80.9%
CYP2D6 activity (% of control activity) [15]: 63.9%

SMILES: CCCCCCCCc1ccc(CCN2CCC(O)CC2)cc1 [RB005, reference compound]
cytotoxic effect, comparison ([3]; HCT116, 10, 20 and 40 µM, Supplementary Figure S1C): higher than compounds 11, 13, and PF-543
PP2A activity increase ([7]; HCT116, 24 h, 20 µM of compounds 10, 11 and 13, vs nontreated control cells): 1.59 fold

SMILES: CCCCCCCCOc1ccc(-c2noc([C@@H]3CCCN3C(=N)N)n2)cc1C(F)(F)F [SLM6041434]
Ki ([2]; known compound): 0.4 to 1.1 µM
